Assay results published in patent US12564547B2, “Compositions, formulations, and methods for skin treatment” (Oddity Labs, LLC, priority 2022, dated 2026).

How the values were obtained:
Format in all cases: cell-based
Nrf2-ARE pathway = assay: KeratinoSens Nrf2-ARE reporter assay (ARE-luciferase activity); conditions: across a concentration range
Procedure: (§1) The safety/toxicology profiles of a compound or salt of the present disclosure was evaluated via a series of in vitro genotoxicity assays, including the SOS-chromotest to determine bacterial genotoxicity, and the TK.6 micronucleus assay to determine chromosomal damage and forward mutations. Standard reactive oxygen species (ROS) and caspase 3/7 assay were conducted to determine general cellular toxicity. Moreover, a series of sensitization tests were conducted to predict any potential skin sensitivity. These include the direct peptide reactivity assay to evaluate haptenization, the KeratinoSens reporter assay to determine any potential sensitivity via the activation of a cytoprotective pathway, and an immunological assay using human immature monocyte-derived dendritic cells to evaluate any potential immunogenicity.
The Nrf2-ARE pathway is a master regulator of cytoprotective responses to oxidative stress, and is an early indicator of skin sensitization. Nrf2 (nuclear factor erythroid 2-related factor) is a transcription factor that binds to antioxidant responsive elements (ARE). By fusing ARE to the light-producing luciferase gene, a KeratinoSens Nrf2-ARE reporter assay was constructed whereby luciferase signal is directly correlated to Nrf2-ARE pathway activation. […] FIG. 6B describes an in vitro dendritic cell sensitization test. Dendritic cell activation is widely-associated with downstream immunogenicity. CD14+ cells from human donor peripheral mononuclear cells were harvested and differentiated them into immature monocyte-derived DCs using granulocyte-macrophage colony-stimulating factor (GM-CSF) and interleukin-4 (IL-4), then treated with the lead compounds. Killed E. Coli and TNF-α were used as positive controls. FIG. 6C-FIG. 6E are example plots showing change in HLA-DR expression. Expression of CD80 (FIG. 6C), PDL-1 (FIG. 6D), and CD141 (FIG. 6E) as quantified via mean fluorescence intensity (MFI) following dosing with example compounds. […] In FIG. 6A-FIG. 6E, data represents mean±s.d. and representative of at least 2 experimental replicates.

TK.6 lymphoblasts = assay: In vitro genotoxicity: TK.6 micronuclei assay (FIG. 5B) and SOS chromotest (FIG. 5C); conditions: TK.6 micronuclei assay without S9, 24 hr, and SOS chromotest; across a concentration range
Procedure: as §1
TK.6 lymphoblasts are a cell line used for gene mutation analyses. TK.6 lymphoblasts are heterozygous for the thymidine kinase gene (TK) and enable the detection of forward mutations and chromosomal damage, which manifests as micronuclei. TK.6 lymphoblasts are detectable via flow cytometry. TK.6 cells were dosed with the compounds or a vehicle control (0.1% v/v DMSO) and cultured without S9 metabolic activation for 24 hr. FIG. 5A-FIG. 5E show the results of in vitro genotoxicity assay and the TK.6 micronucleus assay. FIG. 5A are example plots of TK.6 cells treated with compound V-1. Methyl methanesulfonate, a genotoxic, alkylating agent was used as a positive control for micronuclei detection. […] The SOS chromotest is a bacteria-based test for genotoxicity. […] Cells were treated with either the compounds or vehicle control containing correspondingly % v/v-matched amounts of DMSO. High represents 10 µg/mL while low represents 1 μg/mL. Tested compounds elicited no or minor caspase 3/7 activation at low and high concentrations. In FIG. 5A-FIG. 5E, data represents mean±s.d. and representative of at least 2 experimental replicates.

human dermal fibroblasts = assay: Human dermal fibroblast cells (hDFC) proliferation, cell viability assay (CellTiter-Glo, manual cell counting); conditions: hDFCs proliferation; control is DMSO

| Structure (SMILES) | skin sensitizing potential (Nrf2-ARE pathway activation) (Nrf2-ARE pathway) | genotoxic transformation potential (TK.6 lymphoblasts) | Activity (Percent Increase Proliferation of hFDPCs (%)) (human dermal fibroblasts) |
| --- | --- | --- | --- |
| Cn1c(SCC(=O)N2CCCCCC2)nnc1-c1ccccc1 [I-1, 1-(azepan-1-yl)-2-[(4-methyl-5-phenyl-1,2,4-triazol-3-yl)sulfanyl]ethanone] | did not exhibit apparent Nrf2-ARE pathway activation | mild genotoxicity at higher concentrations | C (increased proliferation of hFDPCs equals to or larger than 4% and less than 8%) |
| COc1ccc(CCCc2nc3ccccc3[nH]2)cc1 [VII-34, 2-[3-(4-methoxyphenyl)propyl]-1H-benzimidazole] | did not exhibit apparent Nrf2-ARE pathway activation | – | D (increased proliferation of hFDPCs equals to or larger than 8%) |
| CCCCC(=O)NCCc1ccc(OC)cc1 [II-1, N-[2-(4-methoxyphenyl)ethyl]pentanamide] | did not exhibit apparent Nrf2-ARE pathway activation | mild genotoxicity at higher concentrations | C (increased proliferation of hFDPCs equals to or larger than 4% and less than 8%) |
| COc1ccc(NC(=O)C(=O)NCCCn2ccnc2)cc1 [III-1, N-(3-imidazol-1-ylpropyl)-N′-(4-methoxyphenyl)oxamide] | did not exhibit apparent Nrf2-ARE pathway activation | mild genotoxicity at higher concentrations | D (increased proliferation of hFDPCs equals to or larger than 8%) |
| CCOCCCn1c(=O)[nH]c2ccccc2c1=O [V-1, 3-(3-ethoxypropyl)-1H-quinazoline-2,4-dione] | did not exhibit apparent Nrf2-ARE pathway activation | did not exhibit any genotoxic transformation potential | C (increased proliferation of hFDPCs equals to or larger than 4% and less than 8%) |
| CN(C)C(=O)COC(=O)c1ccc2[nH]c3c(c2c1)CCCC3 [IV-2, [2-(dimethylamino)-2-oxoethyl] 6,7,8,9-tetrahydro-5H-carbazole-3-carboxylate] | did not exhibit apparent Nrf2-ARE pathway activation | mild genotoxicity at higher concentrations | B (increased proliferation of hFDPCs equals to or larger than 1% and less than 4%) |
| Cc1[nH]c2ccc(C(=O)NCC3CCCO3)cc2c1C (stereo not drawn) [IV-1, 2,3-dimethyl-N-(oxolan-2-ylmethyl)-1H-indole-5-carboxamide] | exhibited sensitizing potential | mild genotoxicity at higher concentrations | C (increased proliferation of hFDPCs equals to or larger than 4% and less than 8%) |
| CC(NC(=O)COc1ccc(CN(C)S(C)(=O)=O)cc1)c1ccccc1 (stereo not drawn) [VII-26, 2-[4-[[methyl(methylsulfonyl)amino]methyl]phenoxy]-N-(1-phenylethyl)acetamide] | – | – | D (increased proliferation of hFDPCs equals to or larger than 8%) |
| CN(C)CCCn1c(=O)[nH]c2ccccc2c1=O [V-2, 3-[3-(dimethylamino)propyl]-1H-quinazoline-2,4-dione] | – | – | A (increased proliferation of hFDPCs of less than 1%) |
| CC(NC(=O)CNC(=O)c1cccs1)c1ccccc1 (stereo not drawn) [VI-1, N-[2-oxo-2-(1-phenylethylamino)ethyl]thiophene-2-carboxamide] | – | – | D (increased proliferation of hFDPCs equals to or larger than 8%) |
| CCN1C(=S)N(C)NC1(C)C [VII-1, 4-ethyl-2,5,5-trimethyl-1,2,4-triazolidine-3-thione] | – | – | D (increased proliferation of hFDPCs equals to or larger than 8%) |
| CCC(=O)NC(C)c1ccccc1 (stereo not drawn) [II-4, N-(1-phenylethyl)propanamide] | – | – | C (increased proliferation of hFDPCs equals to or larger than 4% and less than 8%) |
| CCNC(=O)CCSc1nc(C)cc(C)n1 [VII-19, 3-(4,6-dimethylpyrimidin-2-yl)sulfanyl-N-ethylpropanamide] | – | – | C (increased proliferation of hFDPCs equals to or larger than 4% and less than 8%) |
| CCCNC(=O)CCNC(=O)C(C)Oc1ccc(OC)cc1 (stereo not drawn) [VII-25, 2-(4-methoxyphenoxy)-N-[3-oxo-3-(propylamino)propyl]propanamide] | – | – | B (increased proliferation of hFDPCs equals to or larger than 1% and less than 4%) |
